The record followed here is ChEMBL document CHEMBL1201862, “PubChem BioAssay data set” (2004).

Calls of active or inactive are those of the source.

Usually AC50 stands for the midpoint of the concentration-response curve, whichever way the signal moves.

For assay [1], the target named is T1, Corticotropin-releasing factor receptor 2/Corticotropin-releasing factor-binding protein (Homo sapiens, UniProt P24387+Q13324).
T1 sequence (Q13324 whole entry): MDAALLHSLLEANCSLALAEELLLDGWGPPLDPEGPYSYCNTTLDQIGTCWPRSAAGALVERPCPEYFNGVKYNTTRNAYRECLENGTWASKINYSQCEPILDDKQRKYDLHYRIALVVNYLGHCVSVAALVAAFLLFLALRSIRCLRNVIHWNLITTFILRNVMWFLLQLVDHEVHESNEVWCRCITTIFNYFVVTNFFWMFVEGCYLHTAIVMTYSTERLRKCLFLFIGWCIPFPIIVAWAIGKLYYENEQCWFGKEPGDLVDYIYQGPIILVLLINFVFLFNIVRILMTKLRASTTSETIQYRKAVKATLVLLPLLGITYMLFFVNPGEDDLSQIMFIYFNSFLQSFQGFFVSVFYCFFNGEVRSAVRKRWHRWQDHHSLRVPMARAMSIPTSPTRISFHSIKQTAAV
T1 sequence (P24387 whole entry): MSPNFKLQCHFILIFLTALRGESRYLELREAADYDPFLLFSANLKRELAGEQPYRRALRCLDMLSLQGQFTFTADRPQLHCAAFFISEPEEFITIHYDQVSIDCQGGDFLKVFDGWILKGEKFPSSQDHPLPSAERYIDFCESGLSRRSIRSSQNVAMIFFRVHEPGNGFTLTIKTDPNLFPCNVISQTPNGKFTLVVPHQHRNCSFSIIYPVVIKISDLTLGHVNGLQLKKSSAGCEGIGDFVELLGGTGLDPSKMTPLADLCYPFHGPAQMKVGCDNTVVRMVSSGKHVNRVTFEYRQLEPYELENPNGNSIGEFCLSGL
In words: Dose Response confirmation of uHTS hits for small molecule antagonists of the CRF-binding protein and CRF-R2 receptor complex. It is filed as functional. Particulars: read-out: IC50_Mean.

In assay [2] the target is T1, Corticotropin-releasing factor receptor 2/Corticotropin-releasing factor-binding protein. Put plainly: activators of CRF receptor 2 with binding protein – uHTS hits, confirmation (AID 602473). It is filed as functional. Particulars: read-out: EC50_Mean.
The target in a further assay is T2, Protein skinhead-1 (Caenorhabditis elegans, UniProt P34707).
T2 sequence (P34707 whole entry): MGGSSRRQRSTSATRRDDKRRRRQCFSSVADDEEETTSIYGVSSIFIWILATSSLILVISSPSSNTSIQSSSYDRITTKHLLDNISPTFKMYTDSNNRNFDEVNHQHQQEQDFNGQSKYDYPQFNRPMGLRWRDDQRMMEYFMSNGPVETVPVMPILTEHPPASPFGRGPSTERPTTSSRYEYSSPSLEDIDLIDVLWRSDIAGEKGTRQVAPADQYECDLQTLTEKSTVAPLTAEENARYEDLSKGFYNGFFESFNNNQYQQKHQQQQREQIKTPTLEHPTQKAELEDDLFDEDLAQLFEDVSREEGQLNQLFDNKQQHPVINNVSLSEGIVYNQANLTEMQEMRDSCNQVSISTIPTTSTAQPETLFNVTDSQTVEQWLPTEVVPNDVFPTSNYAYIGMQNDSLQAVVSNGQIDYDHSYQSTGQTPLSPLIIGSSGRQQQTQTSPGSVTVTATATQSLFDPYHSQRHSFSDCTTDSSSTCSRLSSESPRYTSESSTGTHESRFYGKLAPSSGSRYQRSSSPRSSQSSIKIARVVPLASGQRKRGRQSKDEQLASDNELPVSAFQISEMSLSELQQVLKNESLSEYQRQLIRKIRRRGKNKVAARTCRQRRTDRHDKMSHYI
It is filed as functional.

A short description of assay [3]: Luminescence Cell-Based Dose Response HTS to Identify Activators of Luciferase Translation or Activity in H4 […] Cells. [Related pubchem assays: 1829 (Project Summary), 1814 (Primary HTS)]. It is filed as functional.
For a further assay, the system named is H4. Put plainly: Luminescence Cell-Based Dose Response HTS to Identify Activators of 5'UTR Stem-Loop Driven Prion Protein mRNA Translation in H4 Neuroglioblastoma Cells. [Related pubchem assays: 1829 (Project Summary), 1814 (Primary HTS)]. Particulars: Homo sapiens. It is filed as functional.
The next assay can be described thus: cells. It is filed as functional.
Assay [4] addresses Eukaryotic translation initiation factor 4E (Mus musculus, UniProt P63073). Put plainly: eIF4E–eIF4G protein interaction inhibitors, dose response, biochemical, TR-FRET (AID 855).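 Note: potency for disrupting eIF4E binding to eIF4GI seen as loss of FRET.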 It is filed as functional. In general terms: Time-resolved FRET reads energy transfer from a long-lived donor to a nearby acceptor.
A further assay has as its target Cytochrome P450 2D6 (Homo sapiens, UniProt P10635).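 Note: CYP2D6 member of a cytochrome P450 panel assay.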
A further assay deals with T3, Cytochrome P450 1A2 (Homo sapiens, UniProt P05177).
T3 sequence (P05177 whole entry): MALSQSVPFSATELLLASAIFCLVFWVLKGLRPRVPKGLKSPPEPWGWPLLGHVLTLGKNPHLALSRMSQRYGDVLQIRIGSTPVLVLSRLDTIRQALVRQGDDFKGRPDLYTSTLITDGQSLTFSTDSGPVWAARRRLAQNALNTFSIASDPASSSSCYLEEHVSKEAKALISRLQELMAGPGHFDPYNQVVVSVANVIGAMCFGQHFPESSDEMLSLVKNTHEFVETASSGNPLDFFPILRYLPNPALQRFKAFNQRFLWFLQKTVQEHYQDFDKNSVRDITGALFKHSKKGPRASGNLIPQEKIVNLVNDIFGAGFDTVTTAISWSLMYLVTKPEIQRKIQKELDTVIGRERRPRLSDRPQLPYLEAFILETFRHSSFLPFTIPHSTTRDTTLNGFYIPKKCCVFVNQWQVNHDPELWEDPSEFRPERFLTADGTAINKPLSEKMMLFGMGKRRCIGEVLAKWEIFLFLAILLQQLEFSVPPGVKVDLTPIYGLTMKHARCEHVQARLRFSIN

Another assay relates to H9c2. In words: cells. It is filed as functional, cell-based. The following applies: Rattus norvegicus, H9c2, Myocardium.
Another assay concerns the target Large T antigen (Simian virus 40, UniProt P03070). It is filed as functional, Betapolyomavirus macacae.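 Note: Confirmatory-stage PubChem screen for compounds that inhibit SV40 T antigen.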
Assay [5] addresses T4, Rac GTPase-activating protein 1 (Homo sapiens, UniProt Q9H0H5).
T4 sequence (Q9H0H5 whole entry): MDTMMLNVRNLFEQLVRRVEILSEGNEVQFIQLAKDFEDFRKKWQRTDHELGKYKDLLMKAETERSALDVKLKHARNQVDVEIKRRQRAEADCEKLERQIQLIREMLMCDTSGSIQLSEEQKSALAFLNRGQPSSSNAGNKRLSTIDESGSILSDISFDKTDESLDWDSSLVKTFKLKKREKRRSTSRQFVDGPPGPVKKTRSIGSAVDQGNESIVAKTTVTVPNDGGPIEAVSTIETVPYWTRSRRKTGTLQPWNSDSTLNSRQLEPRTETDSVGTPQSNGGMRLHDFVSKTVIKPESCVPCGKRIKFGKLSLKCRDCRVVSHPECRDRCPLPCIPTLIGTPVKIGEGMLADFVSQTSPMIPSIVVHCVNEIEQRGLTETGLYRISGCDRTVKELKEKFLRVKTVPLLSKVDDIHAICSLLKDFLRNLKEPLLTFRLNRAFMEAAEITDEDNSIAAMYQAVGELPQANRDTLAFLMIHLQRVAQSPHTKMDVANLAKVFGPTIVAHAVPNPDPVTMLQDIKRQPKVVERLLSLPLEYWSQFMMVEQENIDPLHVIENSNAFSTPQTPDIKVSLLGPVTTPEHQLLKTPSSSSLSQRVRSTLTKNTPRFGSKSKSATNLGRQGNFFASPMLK
Put plainly: MgcRacGAP GTPase-activating activity inhibitors, confirmation, biochemical, ADP Hunter fluorescence, primary and confirmatory (AID 624330). It is filed as functional.

Assay [6] deals with FAD-linked sulfhydryl oxidase ALR (Homo sapiens, UniProt P55789). Put plainly: inhibitors of human ALR sulfhydryl oxidase, dose response, biochemical, H2O2 detection, luminescence, cherry-pick (AID 493248).
Chain of FAD-linked sulfhydryl oxidase ALR (P55789 whole entry): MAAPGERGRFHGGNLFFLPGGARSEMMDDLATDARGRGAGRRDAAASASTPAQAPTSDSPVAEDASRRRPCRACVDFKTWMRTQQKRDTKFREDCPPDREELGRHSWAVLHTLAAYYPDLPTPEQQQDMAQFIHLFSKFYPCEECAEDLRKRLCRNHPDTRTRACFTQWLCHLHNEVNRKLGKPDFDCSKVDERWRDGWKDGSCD

Chain of Large T antigen (P03070 whole entry): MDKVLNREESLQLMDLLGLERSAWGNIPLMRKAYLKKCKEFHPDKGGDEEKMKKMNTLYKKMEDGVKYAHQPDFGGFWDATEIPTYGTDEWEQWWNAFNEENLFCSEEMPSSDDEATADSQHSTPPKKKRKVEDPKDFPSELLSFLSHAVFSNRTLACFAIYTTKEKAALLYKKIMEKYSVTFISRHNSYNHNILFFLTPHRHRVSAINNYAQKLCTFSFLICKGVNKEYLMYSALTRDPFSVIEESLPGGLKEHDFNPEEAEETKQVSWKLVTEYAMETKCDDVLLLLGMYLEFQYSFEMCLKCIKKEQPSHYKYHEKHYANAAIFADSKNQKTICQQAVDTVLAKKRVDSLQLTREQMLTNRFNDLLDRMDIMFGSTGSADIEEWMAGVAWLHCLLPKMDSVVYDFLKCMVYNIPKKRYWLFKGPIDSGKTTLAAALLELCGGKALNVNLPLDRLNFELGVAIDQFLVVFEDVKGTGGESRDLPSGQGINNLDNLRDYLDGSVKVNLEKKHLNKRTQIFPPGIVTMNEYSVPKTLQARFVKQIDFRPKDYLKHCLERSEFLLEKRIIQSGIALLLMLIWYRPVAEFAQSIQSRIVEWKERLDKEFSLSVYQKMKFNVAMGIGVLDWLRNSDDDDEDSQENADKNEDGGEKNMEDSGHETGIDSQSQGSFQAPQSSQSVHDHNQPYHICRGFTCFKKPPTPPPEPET
Chain of Eukaryotic translation initiation factor 4E (P63073 whole entry): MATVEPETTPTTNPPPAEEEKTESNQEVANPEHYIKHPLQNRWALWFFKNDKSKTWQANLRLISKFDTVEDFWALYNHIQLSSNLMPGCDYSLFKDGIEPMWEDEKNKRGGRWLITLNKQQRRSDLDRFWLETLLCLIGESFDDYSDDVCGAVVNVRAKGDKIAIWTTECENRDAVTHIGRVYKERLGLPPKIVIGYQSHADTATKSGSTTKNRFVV
Chain of Cytochrome P450 2D6 (P10635 whole entry): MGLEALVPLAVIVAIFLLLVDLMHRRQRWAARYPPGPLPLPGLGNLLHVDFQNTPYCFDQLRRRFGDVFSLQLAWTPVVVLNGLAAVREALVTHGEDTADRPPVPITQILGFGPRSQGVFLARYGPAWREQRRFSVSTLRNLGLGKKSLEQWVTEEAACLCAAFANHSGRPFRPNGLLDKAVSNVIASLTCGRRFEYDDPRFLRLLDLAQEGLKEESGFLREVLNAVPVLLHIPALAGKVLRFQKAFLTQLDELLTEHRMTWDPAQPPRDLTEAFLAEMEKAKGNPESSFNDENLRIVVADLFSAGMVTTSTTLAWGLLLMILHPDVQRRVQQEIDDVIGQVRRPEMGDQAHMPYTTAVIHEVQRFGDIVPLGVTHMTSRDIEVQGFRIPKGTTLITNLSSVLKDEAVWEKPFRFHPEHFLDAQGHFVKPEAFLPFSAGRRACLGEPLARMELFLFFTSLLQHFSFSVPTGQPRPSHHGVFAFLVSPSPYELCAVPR

For the compound `CCO/C(O)=C1/C(C)=NC(SCC(=O)OC)=C(C#N)C1c1ccc(C(=O)OC)cc1` (stereo not drawn), in assay [1], the IC50 is < 0.368 µM (active). Also, in [2], the EC50 was > 53 µM (inactive).
Regarding `CCN(C(=O)c1ccco1)c1nc(-c2ccc(OC)cc2)cs1`, at Protein skinhead-1, the IC50 was > 100 µM (inactive).
Still for that read-out and setting: for `Cc1ccc2c([N+](=O)[O-])c(C)ccc2n1` the value was > 100 µM (inactive).
`CC1C(=O)C(C)C(c2cc(Br)ccc2O)NC1c1cc(Br)ccc1O` (stereo not drawn): in assay [1], the IC50 is > 47.1 µM (inactive). The EC50 in assay [2] was > 53 µM (inactive).
`NC(=O)c1ccccc1/N=C/c1ccc2ccccc2c1`: the EC50 was 1.14 µM (active) in [3] and 0.197 µM (active) with H4.
For `CCOC(=O)COc1ccc(C2CC(C)=NN2c2ccccc2)cc1` (stereo not drawn), the IC50 in “cells” was 4.31 µM (active).
For the compound `O=C(CSc1nnc(-c2ccccc2)n1C1CCCCC1)Nc1ccc(S(=O)(=O)Nc2ccccn2)cc1`, the IC50 in [4] is > 64 µM (inactive).
Turning to `CN1CCC(O)(c2ccccc2)C(C(=O)c2ccccc2)C1` (stereo not drawn), the IC50 in “cells” is 36.1 µM (active).
As for `CC1CN(C(=O)c2cccs2)CCN1C(=O)c1cccs1` (stereo not drawn), the IC50 on Protein skinhead-1 is > 100 µM (inactive).
Still for that read-out and setting: for `CCOc1ccc(OCC)c(NC(=O)CSCC(=O)O)c1` the value was > 100 µM (inactive).
On to `Cc1cc(N2CCOCC2)n2nc(C)c(-c3ccccc3)c2n1`, for which the IC50 in assay [4] is > 64 µM (inactive).
Same read-out and setting: to `Sc1nnc(-c2ccco2)n1/N=C/c1ccc(Br)s1` belongs > 64 µM (inactive).
Regarding `CCCCOc1ccc(C(=O)N/C(=C\c2ccc(OC)cc2)C(=O)OCc2ccco2)cc1`, the figures for the concentration at half-maximal activity (AC50) on Cytochrome P450 2D6 and on Cytochrome P450 1A2 were 7.94 µM (inconclusive) and 14.1 µM (inconclusive), respectively. In the assay with H9c2, the IC50 was > 79 µM (inactive).
Consider `c1cc2c(nn1)CCc1nonc1-2`, for which the IC50 on Protein skinhead-1 was > 100 µM (inactive).
Consider `Cc1cccc([N+]2=C3CCCCN3C(O)(c3cccs3)C2)c1` (stereo not drawn), for which, in [1], the IC50 was > 47.1 µM (inactive). Besides, in [2], the EC50 was > 53 µM (inactive).
The like results for `CCOC(=O)N1CCN(C(=O)CSc2nnc(CNC(=O)c3ccccc3F)o2)CC1` were, in that order, > 47.1 µM (inactive) and > 53 µM (inactive).
As for `COC(=O)CC(=O)N1CCN(c2ccc(Cl)c(Cl)c2)CC1`, in the assay “cells”, the IC50 is 25.5 µM (active).
Same read-out and setting: to `CCC(=O)c1ccc(OCC(=O)OCC(=O)c2cc(C)n(C3CC3)c2C)cc1` belongs 9.8 µM (active).
As for `O=C(CCn1nc(-c2ccccc2)ccc1=O)N1CCOCC1`, the IC50 in [1] is > 47.1 µM (inactive). Further, in [2], the EC50 is > 53 µM (inactive).
In the case of `CN(C)c1ccc(NC(=O)c2ccc(N3CCOCC3)nc2)cc1`, the IC50 on Large T antigen was 6.98 µM (active).
Take `CN1CCN(c2ccc(NC(=O)c3ccc(Oc4ccccc4)cc3)cc2)CC1`: the IC50 on Protein skinhead-1 was 23.6 µM (active).
`CN(C)c1ccc(NC(=O)CSc2nc3c(c(=O)[nH]2)CCCC3)cc1`: the IC50 on Large T antigen was 5.87 µM (active).
Regarding `CCNC(S)=Nc1cc(OCC)c(N2CCOCC2)cc1OCC`, on Large T antigen, the IC50 was > 100 µM (active).
Take `CCNc1nc(NC(C)CC)nc(Oc2ccc(OCC)nn2)n1` (stereo not drawn): the IC50 in [1] was > 47.1 µM (inactive). In addition, the EC50 in assay [2] is > 53 µM (inactive).
`O=C(NCCO)c1cccc(-c2ccc3nncn3c2)c1`: on Protein skinhead-1, the IC50 is > 100 µM (inactive).
For `COc1cc(/C=N/Nc2nc(N3CCCC3)nc(N3CCCC3)n2)ccc1O`, the IC50 is 15.2 µM (active) on Large T antigen and 64.3 µM (active) in assay [5].
As to `O=C1CCc2nc3ccccc3c(=O)n2N1`, the IC50 in assay [1] is > 47.1 µM (inactive). For the same compound, in assay [2], the EC50 is > 53 µM (inactive).
Turning to `O=C(c1ccccc1)c1cnc2cc3c(cc2c1O)OCCO3`, at Protein skinhead-1, the IC50 was > 100 µM (inactive).
With `COc1ccc(C(=O)ON=C(N)Cc2ccc(Cl)c(Cl)c2)cc1OC`, the IC50 in assay [1] was 7.41 µM (active). In addition, the EC50 in assay [2] is > 53 µM (inactive).
In the case of `CC(C)(C)n1nnnc1C(c1ccncc1)N1CCN(c2ccc(O)cc2)CC1` (stereo not drawn), the IC50 on Large T antigen was 13.9 µM (active). In addition, the AC50 in [6] was 3.48 µM (active).
In the case of `O=C(NCCN1C(=O)C2C3C=CC(C3)C2C1=O)Nc1ccccc1O` (stereo not drawn), the IC50 at Protein skinhead-1 was > 100 µM (inactive).
As to `Cc1ccc(S(=O)(=O)Nc2cc(O)nc(SCC(=O)Nc3cccc(C(F)(F)F)c3)n2)cc1`, in assay [1], the IC50 is > 47.1 µM (inactive). The EC50 in [2] is > 53 µM (inactive).
With `O=C1CN(C(=O)c2cccs2)c2ccccc2N1`, the IC50 in [4] is > 64 µM (inactive).
In the case of `COc1cc(OC)cc(OC(=O)c2ccc3c(=O)n4c(nc3c2)CCC4)c1`, the IC50 in the assay “cells” was 9.14 µM (active).
